Data taken from US6703347B2, “Isothiazole derivatives and their use as pesticides” (Syngenta Limited, priority 2000, dated 2004).
“And” between values parts separate entries of the source, which are not always exact repeats. Identical values can stand only once. Like-named read-outs stand apart in the source and are kept apart here.

Key:
[1] = test system: corn root worm (Diabrotica balteata); experiment: pesticidal test against corn root worm; conditions: liquid composition containing 500 ppm by weight of compound
Protocol: (§1) The activities of individual compounds of formula (I) were determined using a variety of pests. The pests were treated with a liquid composition containing 500 parts per million (ppm) by weight of a compound of formula (I). Each composition was made by dissolving the compound in an acetone and ethanol (50:50 by volume) mixture and diluting the solution with water containing 0.05% by volume of a wetting agent, SYNPERONIC NP8, until the liquid composition contained the required concentration of the compound.
(§2) The test procedure adopted with regard to each pest was essentially the same and comprised supporting a number of the pests on a medium, which was usually a substrate, a host plant or a foodstuff on which the pests feed, and treating either or both the medium and the pests with a composition. Pest mortality was assessed usually between two and five days after treatment.
(§3) Similar tests were conducted against, independently, two-spotted spider mites (Tetranychus urticae), fruit flies (Drosophila melanogaster), tobacco budworms (Heliothis virescens), diamond back moth (Plutella xylostella) and corn root worm (Diabrotica balteata).

[2] = test system: tobacco budworms (Heliothis virescens); experiment: pesticidal test against tobacco budworms; conditions: liquid composition containing 500 ppm by weight of compound
Protocol: as §1, §2, §3

[3] = test system: diamond back moth (Plutella xylostella); experiment: pesticidal test against diamond back moth; conditions: liquid composition containing 500 ppm by weight of compound
Protocol: as §1, §2, §3

[4] = test system: fruit flies (Drosophila melanogaster); experiment: pesticidal test against fruit flies; conditions: liquid composition containing 500 ppm by weight of compound
Protocol: as §1, §2, §3

[5] = test system: peach potato aphids (Myzus persicae); experiment: whole plant or invertebrate; conditions: 72 h, read-out: mortality (score) Mp
Protocol: (§4) This Example illustrates the pesticidal/insecticidal properties of compounds of formula (I). The activities of individual compounds of formula (I) were determined using a variety of pests. The pests were treated with a liquid composition containing 500 parts per million (ppm) by weight of a compound of formula (I). Each composition was made by dissolving the compound in an acetone and ethanol (50:50 by volume) mixture and diluting the solution with water containing 0.05% by volume of a wetting agent, SYNPERONIC NP8, until the liquid composition contained the required concentration of the compound.
as §2
(§5) In each test against peach potato aphids (Myzus persicae), Chinese cabbage leaves were infested with aphids, the infested leaves were sprayed with a test composition and pest mortality was assessed after three days.

[6] = test system: Pyricularia oryzae (PYRIOR); type: in vivo; conditions: 100 ppm foliar spray on rice; inoculated one day after chemical application (Prot)
[7] = test system: Phytophthora infestans lycopersici (PHYTIN); type: in vivo; conditions: 100 ppm foliar spray on tomatoes; inoculated one day after chemical application (Prot)
[8] = test system: Blumeria graminis f.sp. tritici (ERYSGT); experiment: foliar fungicide test on wheat (Example 19); type: in vivo; conditions: 100 ppm foliar (Prot) application on wheat; inoculated 6 hours or one day after application
[9] = test system: Uncinula necator (UNCINE); experiment: foliar fungicide test on vines (Example 18); type: in vivo; conditions: 100 ppm foliar spray on vines; for UNCINE Erad, PRCO (Percentage Reduction from Control): inoculated one day before chemical application (Erad)
[10] = test system: Venturia inaequalis (VENTIN); experiment: foliar fungicide test on apples (Example 18); type: in vivo; conditions: 100 ppm foliar spray on apples; inoculated one day after chemical application (Prot)
[11] = test system: two-spotted spider mites (Tetranychus urticae); conditions: liquid composition containing 500 ppm by weight of compound
Protocol: as §1, §2, §3

[12] = test system: Puccinia recondita (PUCCRT); experiment: foliar fungicide test on wheat (Example 18); type: in vivo; conditions: 100 ppm foliar spray on wheat; inoculated one day after chemical application (Prot)
[13] = test system: peach potato aphids (Myzus persicae); conditions: 500 ppm by weight; infested Chinese cabbage leaves sprayed; mortality assessed after three days
Protocol: as §4, §2, §5

[14] = test system: Plasmopara viticola (PLASVI); experiment: foliar fungicide test on vines (Example 19); type: in vivo; conditions: 100 ppm foliar (Prot) application on vines; inoculated 6 hours or one day after application
[15] = test system: Phytophthora infestans lycopersici (PHYTIN); type: in vivo; conditions: 100 ppm foliar (Prot) application on tomatoes; inoculated 6 hours or one day after application

| Structure (SMILES) | mortality (score) Db [1] | mortality (score) Hv [2] | mortality (score) Px [3] | mortality (score) Dm [4] | mortality (score) Tu [11] | mortality (score) Mp [13] | other results |
| --- | --- | --- | --- | --- | --- | --- | --- |
| CCc1nsc(NC(=O)C(C)c2ccc3sc(CC(C)C)nc3c2)c1Cl (stereo not shown) [Table 39 Compound 86, N-(4-chloro-3-ethylisothiazol-5-yl)-2-[2-(2-methylpropyl)benzothiazol-5-yl]propionamide] | 9 (9 indicates 80-100% mortality) | 9 (9 indicates 80-100% mortality) | 9 (9 indicates 80-100% mortality) | 0 (represents less than 40% mortality) | – | – | mortality at 500 ppm [5]: 40 to 79% |
| Cc1nsc(NC(=O)C(=CN(C)C)c2ccc3oc(CC(C)(C)C)nc3c2)c1Cl [Table 14 Compound 7, N-(4-chloro-3-methylisothiazol-5-yl)-α-[(dimethylamino)methylene]-[2-(2,2-dimethylpropyl)benzoxazol-5-yl]acetamide] | – | – | – | – | 9 (9 indicates 80-100% mortality) | – | PYRIOR Prot, PRCO (Percentage Reduction from Control) [6]: 92; PHYTIN Prot, PRCO (Percentage Reduction from Control) [7]: 0; ERYSGT Prot, PRCO (Percentage Reduction from Control) [8]: 83; UNCINE Erad, PRCO (Percentage Reduction from Control) [9]: 100; VENTIN Prot, PRCO (Percentage Reduction from Control) [10]: 85; mortality at 500 ppm [5]: 80 to 100%; PUCCRT Prot, PRCO (Percentage Reduction from Control) [12]: 98 |
| CCOCN(C(=O)/C=C/c1ccc2oc(CC(C)(C)C)nc2c1)c1snc(C)c1Cl [Table 81 Compound 77] | 9 (9 indicates 80-100% mortality) | 0 (represents less than 40% mortality) | 0 (represents less than 40% mortality) | 0 (represents less than 40% mortality) | 0 (represents less than 40% mortality) | 0 (represents less than 40% mortality) | – |
| CCOC(=O)CNN=C(C(=O)Nc1snc(C)c1Cl)c1ccc2oc(CC(C)(C)C)nc2c1 [Table 30 Compound 7] | – | – | – | – | – | 9 (9 indicates 80-100% mortality) | ERYSGT Prot, PRCO (Percentage Reduction from Control) [8]: 100 |
| Cc1nsc(NC(=O)C(C)c2ccc3oc(CC(C)(C)C)nc3c2)c1Cl (stereo not shown) [Table 1 Compound 7, N-(4-chloro-3-methylisothiazol-5-yl)-2-[2-(2,2-dimethylpropyl)benzoxazol-5-yl]propionamide] | – | – | – | – | – | – | PYRIOR Prot, PRCO (Percentage Reduction from Control) [6]: 24; UNCINE Erad, PRCO (Percentage Reduction from Control) [9]: 100; mortality at 500 ppm [5]: 40 to 79%; PUCCRT Prot, PRCO (Percentage Reduction from Control) [12]: 85 |
| Cc1nsc(NC(=O)C(CC#N)c2ccc3oc(CC(C)(C)C)nc3c2)c1Cl (stereo not shown) [Table 20 Compound 7] | 0 (represents less than 40% mortality) | 0 (represents less than 40% mortality) | 9 (9 indicates 80-100% mortality) | 0 (represents less than 40% mortality) | 9 (9 indicates 80-100% mortality) | 5 (5 indicates 40-79% mortality) | PLASVI Prot, PRCO (Percentage Reduction from Control) [14]: 100; PHYTIN Prot, PRCO (Percentage Reduction from Control) [15]: 72 |
| COC=C(C(=O)Nc1snc(C)c1Cl)c1ccc2oc(CC(C)(C)C)nc2c1 [Table 13 Compound 7] | – | – | 0 (represents less than 40% mortality) | 0 (represents less than 40% mortality) | – | 9 (9 indicates 80-100% mortality) | PLASVI Prot, PRCO (Percentage Reduction from Control) [14]: 100; PHYTIN Prot, PRCO (Percentage Reduction from Control) [15]: 100 |
| Cc1nsc(NC(=O)C(SC(C)C)c2ccc3oc(CC(C)(C)C)nc3c2)c1Cl (stereo not shown) [Table 22 Compound 7] | – | – | – | – | 9 (9 indicates 80-100% mortality) | 0 (represents less than 40% mortality) | – |
| Cc1nsc(NC(=O)C(=CNCc2ccc(Cl)cc2)c2ccc3oc(CC(C)(C)C)nc3c2)c1Cl [Table 19 Compound 7] | – | – | – | – | 9 (9 indicates 80-100% mortality) | 5 (5 indicates 40-79% mortality) and 9 (9 indicates 80-100% mortality) | – |
| Cc1nsc(NC(=O)C(O)c2ccc3oc(CC(C)(C)C)nc3c2)c1Cl (stereo not shown) [Table 7 Compound 7] | – | – | 9 (9 indicates 80-100% mortality) | 9 (9 indicates 80-100% mortality) | 9 (9 indicates 80-100% mortality) | 0 (represents less than 40% mortality) | – |
| Cc1nsc(NC(=O)C(=O)c2ccc3oc(CC(C)(C)C)nc3c2)c1Cl [Table 10 Compound 7] | – | – | 9 (9 indicates 80-100% mortality) | – | 0 (represents less than 40% mortality) | 9 (9 indicates 80-100% mortality) | – |
| Cc1nsc(NC(=O)C(C)c2ccc3oc(CC(F)(F)F)nc3c2)c1Cl (stereo not shown) [Table 1 Compound 8, N-(4-chloro-3-methylisothiazol-5-yl)-2-[2-(2,2,2-trifluoroethyl)benzoxazol-5-yl]propionamide] | 9 (9 indicates 80-100% mortality) | 9 (9 indicates 80-100% mortality) | 9 (9 indicates 80-100% mortality) | 0 (represents less than 40% mortality) | – | – | mortality at 500 ppm [5]: 40 to 79% |
| Cc1nsc(NC(=O)C(c2ccc3oc(CC(C)(C)C)nc3c2)C(C)C)c1Cl (stereo not shown) [Table 3 Compound 7] | – | – | – | – | – | – | PHYTIN Prot, PRCO (Percentage Reduction from Control) [7]: 20; UNCINE Erad, PRCO (Percentage Reduction from Control) [9]: 91; PUCCRT Prot, PRCO (Percentage Reduction from Control) [12]: 19 |
| CCc1nsc(NC(=O)C(OC)c2ccc3oc(CC(C)C)nc3c2)c1Cl (stereo not shown) [Table 9 Compound 86] | 9 (9 indicates 80-100% mortality) | 9 (9 indicates 80-100% mortality) | 9 (9 indicates 80-100% mortality) | 5 (5 indicates 40-79% mortality) | – | 9 (9 indicates 80-100% mortality) | – |
| CCc1nsc(NC(=O)C(C)c2ccc3sc(CC(C)(C)C)nc3c2)c1Cl (stereo not shown) [Table 39 Compound 87] | 9 (9 indicates 80-100% mortality) | 9 (9 indicates 80-100% mortality) | 9 (9 indicates 80-100% mortality) | 0 (represents less than 40% mortality) | – | 0 (represents less than 40% mortality) | – |
| CCOCN(C(=O)C(F)c1ccc2oc(CC(C)(C)C)nc2c1)c1snc(CC)c1Cl (stereo not shown) [Table 5 Compound 157] | 9 (9 indicates 80-100% mortality) | 9 (9 indicates 80-100% mortality) | 9 (9 indicates 80-100% mortality) | 9 (9 indicates 80-100% mortality) | – | 9 (9 indicates 80-100% mortality) | – |
| Cc1nsc(NC(=O)C(C)(F)c2ccc3oc(CC(C)(C)C)nc3c2)c1Cl (stereo not shown) [Table 6 Compound 7, N-(4-chloro-3-methylisothiazol-5-yl)-2-[2-(2,2-dimethylpropyl)benzoxazol-5-yl]-2-fluoropropionamide] | 9 (9 indicates 80-100% mortality) | 9 (9 indicates 80-100% mortality) | – | 5 (5 indicates 40-79% mortality) | – | – | mortality at 500 ppm [5]: 80 to 100% |
| C=C(C(=O)Nc1snc(C)c1Cl)c1ccc2oc(CC(C)(C)C)nc2c1 [Table 11 Compound 7] | – | – | – | – | – | – | PYRIOR Prot, PRCO (Percentage Reduction from Control) [6]: 66; PHYTIN Prot, PRCO (Percentage Reduction from Control) [7]: 50; UNCINE Prot, PRCO (Percentage Reduction from Control) ([9]; inoculated one day after chemical application (Prot)): 73; PUCCRT Prot, PRCO (Percentage Reduction from Control) [12]: 27 |
| CC(=O)OCC(C(=O)Nc1snc(C)c1Cl)c1ccc2oc(CC(C)(C)C)nc2c1 (stereo not shown) [Table 28 Compound 7] | 0 (represents less than 40% mortality) | 9 (9 indicates 80-100% mortality) | – | 0 (represents less than 40% mortality) | – | 5 (5 indicates 40-79% mortality) | PLASVI Prot, PRCO (Percentage Reduction from Control) [14]: 97; ERYSGT Prot, PRCO (Percentage Reduction from Control) [8]: 98 |
| CCNC=C(C(=O)Nc1snc(C)c1Cl)c1ccc2oc(CC(C)(C)C)nc2c1 [Table 15 Compound 7, N-(4-chloro-3-methylisothiazol-5-yl)-α-[(ethylamino)methylene]-[2-(2,2-dimeth-ylpropyl)benzoxazol-5-yl]acetamide] | – | – | – | – | 9 (9 indicates 80-100% mortality) | – | PYRIOR Prot, PRCO (Percentage Reduction from Control) [6]: 57; UNCINE Erad, PRCO (Percentage Reduction from Control) [9]: 100; VENTIN Prot, PRCO (Percentage Reduction from Control) [10]: 53; mortality at 500 ppm [5]: 80 to 100%; PUCCRT Prot, PRCO (Percentage Reduction from Control) [12]: 100 |
| CCOCN(C(=O)C(C)c1ccc2oc(CC(C)(C)C)nc2c1)c1snc(CC)c1Cl (stereo not shown) [Table 1 Compound 157] | 9 (9 indicates 80-100% mortality) | 9 (9 indicates 80-100% mortality) | 9 (9 indicates 80-100% mortality) | 0 (represents less than 40% mortality) | – | 9 (9 indicates 80-100% mortality) | – |
